Measured values: patent US20230203043A1, “NOVEL IMIDAZOPYRAZINE DERIVATIVES” (Hoffmann-La Roche Inc., priority 2020, published 2023)
Where a name gives a salt, the structure may show the parent alone. Read-outs that look alike come from different tables or passages of the source.

Tested on: Acinetobacter baumannii ATCC17961
Experiment: Antimicrobial susceptibility testing: 90% growth inhibitory concentration (IC90) determination in Iso-Sensitest broth, OD600 growth
Assay type: cell-based
Conditions: Acinetobacter baumannii, ATCC17961, 16 h
Summary of the method: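 Each strain, at about 5×10^(5) CFU/ml, was incubated with twofold dilutions of compound at 35±2° C for 16 h, and IC90 was calculated from kinetic optical density measured at 600 nm during logarithmic growth.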

[1] = read-out: A. baumannii ATCC 17961 IC90 (uM), strain ATCC 17961, OD600 growth over 16 h
[2] = strain ATCC 17961, OD600 growth over 16 h, read-out: A. baumannii ATCC 17961 IC90

IC90 [2] | SMILES | IC90 [1]
0.229 µM | CCc1cc(Nc2nccn3c(-c4cn(CCF)nc4C(F)(F)F)cnc23)ccc1C(=O)NCC1CC1N (stereo not shown) [Example 640, N-((2-aminocyclopropyl)methyl)-2-ethyl-4-((3-(1-(2-fluoroethyl)-3-(trifluoromethyl)-1H-pyrazol-4-yl)imidazo[1,2-a]pyrazin-8-yl)amino) benzamide formate] | –
0.247 µM | CCc1cc(Nc2nccn3c(-c4cn(CC(F)F)nc4C(F)(F)F)cnc23)ccc1C(=O)N[C@H](C)CNC(=O)[C@@H]1CCCN1 [Example 649, (S)-N-((R)-2-(4-((3-(1-(2,2-difluoroethyl)-3-(trifluoromethyl)-1H-pyrazol-4-yl)imidazo[1,2-a]pyrazin-8-yl)amino)-2-ethylbenzamido)propyl)pyrrolidine-2-carboxamide] | –
0.105 µM | O=C(c1ccc(Nc2nccn3c(-c4c[nH]nc4C(F)(F)F)cnc23)cc1Cl)N1CCN(C(=O)[C@@H]2CCCN2)CC1 [Example 209, [2-chloro-4-[[3-[3-(trifluoromethyl)-1H-pyrazol-4-yl]imidazo[1,2-a]pyrazin-8-yl]amino]phenyl]-[4-[(2S)-pyrrolidine-2-carbonyl]piperazin-1-yl]methanone] | –
1.15 µM | CCc1cc(Nc2nccn3c(-c4c[nH]nc4C(F)(F)F)cnc23)ccc1C(=O)N[C@H](C)CNC(=O)[C@@H]1C[C@@H](O)CN1 [Example 782, (2S,4R)-N-((R)-2-(2-ethyl-4-((3-(3-(trifluoromethyl)-1H-pyrazol-4-yl)imidazo[1,2-a]pyrazin-8-yl)amino)benzamido)propyl)-4-hydroxypyrrolidine-2-carboxamide] | –
0.313 µM | CCc1cc(Nc2nccn3c(-c4cn(CC#N)nc4C(F)(F)F)cnc23)ccc1C(=O)NCC(=O)NCC1CCNC1 (stereo not shown) [Example 523, 4-[[3-[1-(cyanomethyl)-3-(trifluoromethyl)pyrazol-4-yl]imidazo[1,2-a]pyrazin-8-yl]amino]-2-ethyl-N-[2-oxo-2-(pyrrolidin-3-ylmethylamino)ethyl] benzamide formate] | –
2.8 µM | O=C(CNC(=O)c1ccc(Nc2nccn3c(-c4c[nH]nc4C(F)(F)F)cnc23)cc1Cl)N[C@@H]1CCNC1 [Example 139, 2-chloro-N-[2-oxo-2-[[(3R)-pyrrolidin-3-yl]amino]ethyl]-4-[[3-[3-(trifluoromethyl)-1H-pyrazol-4-yl]imidazo[1,2-a]pyrazin-8-yl]amino]benzamide] | –
0.099 µM | C#CCn1cc(-c2cnc3c(Nc4ccc(C(=O)NC)c(Cl)c4)nccn23)c(C(F)(F)F)n1 [Example 351, 2-chloro-N-methyl-4-[[3-[1-prop-2-ynyl-3-(trifluoromethyl)pyrazol-4-yl]imidazo[1,2-a]pyrazin-8-yl]amino]benzamide] | –
0.189 µM | CNC(=O)c1ccc(Nc2nccn3c(-c4cn(CCC#N)nc4C(F)(F)F)cnc23)cc1Cl [Example 358, 2-chloro-4-[[3-[1-(2-cyanoethyl)-3-(trifluoromethyl)pyrazol-4-yl]imidazo[1,2-a]pyrazin-8-yl]amino]-N-methylbenzamide] | –
0.339 µM | CCc1cc(Nc2nccn3c(-c4cn(CCF)nc4C(F)(F)F)cnc23)ccc1C(=O)N[C@@H](C)CN [Example 65, N-[(2S)-1-aminopropan-2-yl]-2-ethyl-4-[[3-[1-(2-fluoroethyl)-3-(trifluoromethyl)pyrazol-4-yl]imidazo[1,2-a]pyrazin-8-yl]amino]benzamide] | –
0.267 µM | NCCOCCNC(=O)c1ccc(Nc2nccn3c(-c4c[nH]nc4C(F)(F)F)cnc23)cc1Cl [Example 361, N-[2-(2-aminoethoxy)ethyl]-2-chloro-4-[[3-[3-(trifluoromethyl)-1H-pyrazol-4-yl]imidazo[1,2-a]pyrazin-8-yl]amino]benzamide hydrochloride] | –
1.3 µM | CCc1cc(Nc2nccn3c(-c4c[nH]nc4C(F)(F)F)cnc23)ccc1C(=O)N1CCN(C(=O)C2(O)CCNCC2)CC1 [Example 355, [2-ethyl-4-[[3-[3-(trifluoromethyl)-1H-pyrazol-4-yl]imidazo[1,2-a]pyrazin-8-yl]amino]phenyl]-[4-(4-hydroxypiperidine-4-carbonyl)piperazin-1-yl]methanone hydrochloride] | –

The remaining lines, values behind:

SMILES | IC90 [2] | IC90 [1]
Cc1cc(Nc2nccn3c(-c4cn(CC#N)nc4C(F)(F)F)cnc23)cc(F)c1C(=O)N[C@H](C)CNC(=O)[C@H](C)N [Example 722, N-((R)-1-((S)-2-aminopropanamido)propan-2-yl)-4-((3-(1-(cyanomethyl)-3-(trifluoromethyl)-1H-pyrazol-4-yl)imidazo[1,2-a]pyrazin-8-yl)amino)-2-fluoro-6-methylbenzamide formate] | – | 0.458 µM
Cn1ccc(Cn2cc(-c3cnc4c(Nc5ccc(C(=O)N6CCNCC6)c(Cl)c5)nccn34)c(C(F)(F)F)n2)n1 [Example 183, [2-chloro-4-[[3-[1-[(1-methylpyrazol-3-yl)methyl]-3-(trifluoromethyl)pyrazol-4-yl]imidazo[1,2-a]pyrazin-8-yl]amino]phenyl]-piperazin-1-ylmethanone formate] | – | 0.372 µM
NC1CC(C(=O)N2CCN(C(=O)c3ccc(Nc4nccn5c(-c6c[nH]nc6C(F)(F)F)cnc45)cc3Cl)CC2)C1 (stereo not shown) [Example 327, [4-(3-aminocyclobutanecarbonyl)piperazin-1-yl]-[2-chloro-4-[[3-[3-(trifluoromethyl)-1H-pyrazol-4-yl]imidazo[1,2-a]pyrazin-8-yl]amino]phenyl]methanone formate] | – | 0.146 µM
NCCC(=O)NCCCNC(=O)c1ccc(Nc2nccn3c(-c4c[nH]nc4C(F)(F)F)cnc23)cc1Cl [Example 338, N-[3-(3-aminopropanoylamino)propyl]-2-chloro-4-[[3-[3-(trifluoromethyl)-1H-pyrazol-4-yl]imidazo[1,2-a]pyrazin-8-yl]amino]benzamide hydrochloride] | 0.691 µM | –
Cc1cc(Nc2nccn3c(-c4cn(CC#N)nc4C(F)(F)F)cnc23)cc(F)c1C(=O)N1CCN(C(=O)[C@H]2[C@@H]3CNC[C@@H]32)CC1 [Example 676, 2-(4-(8-((4-(4-((1R,5S,6r)-3-azabicyclo[3.1.0]hexane-6-carbonyl)piperazine-1-carbonyl)-3-fluoro-5-methylphenyl)amino)imidazo[1,2-a]pyrazin-3-yl)-3-(trifluoromethyl)-1H-pyrazol-1-yl) acetonitrile formate] | 0.316 µM | –
Cc1cc(Nc2nccn3c(-c4cn(CC#N)nc4C(F)(F)F)cnc23)cc(F)c1C(=O)NCCOCCN [Example 75, N-[2-(2-aminoethoxy)ethyl]-4-[[3-[1-(cyanomethyl)-3-(trifluoromethyl)pyrazol-4-yl]imidazo[1,2-a]pyrazin-8-yl]amino]-2-fluoro-6-methylbenzamide] | 1.7 µM | –
CCc1cc(Nc2nccn3c(-c4cn(CC(F)F)nc4C(F)(F)F)cnc23)ccc1C(=O)NCC(CN)CCl (stereo not shown) [Example 558, N-(3-amino-2-(chloromethyl)propyl)-4-((3-(1-(2,2-difluoroethyl)-3-(trifluoromethyl)-1H-pyrazol-4-yl)imidazo[1,2-a]pyrazin-8-yl)amino)-2-ethylbenzamide formate] | – | 0.174 µM
O=C(c1ccc(Nc2nccn3c(-c4c[nH]nc4C(F)(F)F)cnc23)cc1Cl)N1CCN(C(=O)[C@@H]2CCNC[C@H]2O)CC1 [Example 454, [2-chloro-4-[[3-[3-(trifluoromethyl)-1H-pyrazol-4-yl]imidazo[1,2-a]pyrazin-8-yl]amino]phenyl]-[4-[(3S,4R)-3-hydroxypiperidine-4-carbonyl]piperazin-1-yl]methanone formate] | – | 0.778 µM
Cc1cc(Nc2nccn3c(-c4cn(CC#N)nc4C(F)(F)F)cnc23)cc(F)c1C(=O)N1CCN(C(=O)[C@H]2CC[C@H](O)N2)CC1 [Example 715, 2-(4-(8-((3-fluoro-4-(4-((2R,5S)-5-hydroxypyrrolidine-2-carbonyl)piperazine-1-carbonyl)-5-methylphenyl)amino)imidazo[1,2-a]pyrazin-3-yl)-3-(trifluoromethyl)-1H-pyrazol-1-yl) acetonitrile] | 0.422 µM | –
Cc1cc(Nc2nccn3c(-c4c[nH]nc4C(F)(F)F)cnc23)ccc1C(=O)N1CCN(C(=O)[C@H]2CCNC[C@H]2O)CC1 [Example 463, formic acid; [4-[(3S,4S)-3-hydroxypiperidine-4-carbonyl]piperazin-1-yl]-[2-methyl-4-[[3-[3-(trifluoromethyl)-1H-pyrazol-4-yl]imidazo[1,2-a]pyrazin-8-yl]amino]phenyl]methanone] | – | 0.998 µM
N[C@H]1C[C@H]1C(=O)N1CCN(C(=O)c2ccc(Nc3nccn4c(-c5c[nH]nc5C(F)(F)F)cnc34)cc2Cl)CC1 [Example 225, [4-[(1R,2S)-2-aminocyclopropanecarbonyl]piperazin-1-yl]-[2-chloro-4-[[3-[3-(trifluoromethyl)-1H-pyrazol-4-yl]imidazo[1,2-a]pyrazin-8-yl]amino]phenyl] methanone formate] | – | 1.81 µM
CCc1cc(Nc2nccn3c(-c4cn(C(C)C)nc4C(F)(F)F)cnc23)ccc1C(=O)NCCOCCN [Example 27, N-[2-(2-aminoethoxy)ethyl]-2-ethyl-4-[[3-[1-propan-2-yl-3-(trifluoromethyl)pyrazol-4-yl]imidazo[1,2-a]pyrazin-8-yl]amino]benzamide hydrochloride] | 0.306 µM | –
N#CCn1cc(-c2cnc3c(Nc4ccc(C(=O)N5CCN(C(=O)[C@H]6CC[C@H](N)C6)CC5)c(Cl)c4)nccn23)c(C(F)(F)F)n1 [Example 582, 2-(4-(8-((4-(4-((1S,3S)-3-aminocyclopentane-1-carbonyl)piperazine-1-carbonyl)-3-chlorophenyl)amino)imidazo[1,2-a]pyrazin-3-yl)-3-(trifluoromethyl)-1H-pyrazol-1-yl) acetonitrile formate] | – | 0.232 µM
CCc1cc(Nc2nccn3c(-c4cn(CC#N)nc4C(F)(F)F)cnc23)ccc1C(=O)NCCNC(=O)[C@H](C)N [Example 493, (S)-N-(2-(2-aminopropanamido)ethyl)-4-((3-(1-(cyanomethyl)-3-(trifluoromethyl)-1H-pyrazol-4-yl)imidazo[1,2-a]pyrazin-8-yl)amino)-2-ethylbenzamide formate] | 0.129 µM | –
